Broadly, the Kd is the equilibrium constant for the complex coming apart. A high value points to lower affinity. The stoichiometry N is a count of units in the complex or per binding partner.

Data set [1] has as its target T1, NME1 (Mus musculus, UniProt P15532). Kind of data set: histidine phosphorylation (native gel, native MS); release of NME1 from CoA beads. It is filed as biochemical. Also noted: full-length recombinant.
For another data set, the target named is T2, NME2 (Mus musculus, UniProt Q01768).
T2 construct: full-length, GST-tagged
Kind of data set: CoA-agarose pull-down of GST-NME2 from bacterial extract. It is filed as cell-based.

Data set [2] has as its target T1, NME1. Kind of data set: ITC; crystal structure ([…] Å), native MS, nanoDSF. It is filed as binding. Also on record: full-length, His-tag cleaved by TEV. (In general: ITC needs no label: the signal is the heat of the interaction.)
Data set [3] deals with T1, NME1. Description: dephosphorylation of phosphohistidine NME1 (immunoblot). Also noted: full-length recombinant. It is filed as biochemical.
Data set [4] concerns the molecule itself. Description: native MS; recombinant purified NME1 without ligand or incubated with CoA, AcCoA, SucCoA, dephospho-CoA or ATP; charge states +22 and +21 of the hexamer; methods in the Supplementary Materials.

T2 sequence (Q01768 whole entry): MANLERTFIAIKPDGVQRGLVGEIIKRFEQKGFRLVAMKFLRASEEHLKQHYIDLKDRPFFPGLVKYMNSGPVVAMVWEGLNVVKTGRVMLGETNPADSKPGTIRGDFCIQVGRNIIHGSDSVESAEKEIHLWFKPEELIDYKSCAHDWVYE

Take `Nc1ncnc2c1ncn2[C@@H]1O[C@H](COP(=O)(O)OP(=O)(O)OP(=O)(O)O)[C@@H](O)[C@H]1O` [ATP]: the “histidine phosphorylation (native gel, native MS); release of NME1 from CoA bead” value on NME1 [1] is “recombinant murine NME1 purified from bacteria could be phosphorylated by ATP and subsequently dephosphorylated by ADP or guanosine diphosphate (GDP)”.

On to `CC(C)(COP(=O)(O)OP(=O)(O)OC[C@H]1O[C@@H](n2cnc3c(N)ncnc32)[C@H](O)[C@@H]1OP(=O)(O)O)[C@@H](O)C(=O)NCCC(=O)NCCS` [CoA], for which the “CoA-agarose pull-down of GST-NME2 from bacterial extract” value on NME2 was “NME2 exhibits an ATP-sensitive CoA binding activity comparable to that of NME1 (fig. S11A)”. In addition, on NME1 [2], the Kd is around 18 µM.

On to `Nc1nc2c(ncn2[C@@H]2O[C@H](CO[P@](=O)(O)OP(=O)(O)O)[C@@H](O)[C@H]2O)c(=O)[nH]1` [GDP], for which the “dephosphorylation of phosphohistidine NME1 (immunoblot)” value at NME1 [3] was “phosphorylated by ATP and subsequently dephosphorylated by ADP or guanosine diphosphate (GDP)”.

B1: nucleoside diphosphate kinase 1 (NME1), recombinant murine (enzyme, mouse, UniProt P15532 1-152, looked up)
chain: MANSERTFIAIKPDGVQRGLVGEIIKRFEQKGFRLVGLKFLQASEDLLKEHYTDLKDRPFFTGLVKYMHSGPVVAMVWEGLNVVKTGRVMLGETNPADSKPGTIRGDFCIQVGRNIIHGSDSVKSAEKEISLWFQPEELVEYKSCAQNWIYE
notes: also called NDPK 1; WT NME1; source: E. coli BL21-Gold(D3), purified (HisTrap, TEV cleavage, Superdex 200 SEC); not shown: His6, N-terminal, cleaved
In the case of B1, the “stoichiometry N” value in data set [4] amounted to 6.

These data come from publication PMC10482350, “Nucleoside diphosphate kinases 1 and 2 regulate a protective liver response to a high-fat diet” (Science Advances, 2023).
